We go through six compounds from patent publication US5519155A, “Platinum complexes” (Johnson Matthey Public Limited Company, priority 1994, dated 1996).

The subject of data set [1] is HX-62. Put plainly: In vitro cytotoxicity (SRB assay), human ovarian carcinoma line HX-62. The data set is classed as cell-based. To be noted: HX-62 cells, exposure 48 to 96 hours. How it is done: (§1) Monolayer cells were trypsinized and seeded in 96-well microtiter plates at a density of 1×10^4 cells/well in 200 μl of growth medium. Cells were incubated overnight and test compounds were added to triplicate wells at various concentrations for a total of 48 to 96 hours. For toxicity analysis after drug exposure, the cells were fixed with trichloroacetic acid and stained for cellular protein content by incubation for 30 minutes with 0.4% (wt/vol) sulphorhodamine B (SRB) dissolved in 1% acetic acid. The unbound dye was removed by 1% acetic acid washes, and the bound dye was extracted with 10 mM Tris buffer. The amount of dye in solution was quantified by absorbance at 564 nm.

The subject of data set [2] is SKOV-3. The data set is described as follows: In vitro cytotoxicity (SRB assay), human ovarian carcinoma line SKOV-3. The data set is classed as cell-based. Conditions: SKOV-3 cells, exposure 48 to 96 hours. As to the method: as §1
Background: Sulforhodamine B stains cellular protein and so reports cell mass.

Data set [3] relates to 41M. The data set is described as follows: In vitro cytotoxicity (SRB assay), human ovarian carcinoma line 41M. The data set is classed as cell-based. Conditions: 41M cells, exposure 48 to 96 hours. As to the method: as §1
The subject of data set [4] is 41M^R. The data set is described as follows: In vitro cytotoxicity (SRB assay), human ovarian carcinoma line 41M^R. The data set is classed as cell-based. Conditions: 41M^R cells, exposure 48 to 96 hours. As to the method: as §1
The test system of data set [5] is CH1. The data set is described as follows: In vitro cytotoxicity (SRB assay), human ovarian carcinoma line CH1. It counts as cell-based. To be noted: CH1 cells, exposure 48 to 96 hours. As to the method:
as §1

For data set [6], the system named is Adj/PC6 tumours. The data set is described as follows: In vivo test in mice having Adj/PC6 tumours (LD50, ED90, TI). To be noted: for ED90 / LD50 / TI (ratio of LD50 to ED90): mice, Adj/PC6 tumours. As to the method: The compounds of the invention were then tested in vivo in mice having Adj/PC6 tumours. The Adj/PC6 testing was carried out as described by P M Goddard et al presented in Sixth NCI-EORTC Symposium on New Drugs in Cancer Therapy 1989, which is a development of the basic method described by T A Connors et al, Chem Biol Interact 5,415 (1972). The animals were sacrificed when moribund. The compounds were administered parenterally (ip) or orally (po), or in the case of the Example 2 compound, iv at doses of 2.5, 5, 10 and 20 mg/kg (4 animals per dose group).
In the testing, LD50 and ED90 values in mg/kg body weight were determined in the conventional manner. The therapeutic index (TI) was calculated as the ratio of LD50 to ED90, and the results are shown below.

In data set [7] the test system is CH^R. The data set is described as follows: In vitro cytotoxicity (SRB assay), human ovarian carcinoma line CH^R. It counts as cell-based. To be noted: CH^R cells, exposure 48 to 96 hours. As to the method: as §1
Data set [8] has as its system A2780. Put plainly: In vitro cytotoxicity (SRB assay), human ovarian carcinoma line A2780. It counts as cell-based. Conditions: A2780 cells, exposure 48 to 96 hours. As to the method: as §1
Data set [9] concerns A2780^R. Put plainly: In vitro cytotoxicity (SRB assay), human ovarian carcinoma line A2780^R. The data set is classed as cell-based. Conditions: A2780^R cells, exposure 48 to 96 hours. As to the method:
as §1

The mark [10] stands for this setting: i.v., doses 2.5, 5, 10 and 20 mg/kg.

Structures are written as SMILES.

As usually defined, the IC50 is the point on the concentration scale where inhibition reaches its midpoint. Usually LD50 stands for the dose at which mortality reaches 50%. Low readings indicate a more toxic substance, high ones a less toxic substance. As for `CCCC(=O)[O][Pt]([Cl])([O]C)[O]C(=O)CCC.N.NC1CCCCC1` [Example 1, c,t,c-[PtCl(OMe)(O2 CC3 H7)2 NH3 (c-C6 H11 NH2)]], the half-inhibitory concentration (IC50) came out at 220 nM in [1]; 30 nM in data set [2]; 10 nM in data set [3]; 13 nM in data set [4]; 2 nM in data set [5]. In data set [6] (i.p.), this compound returned an ED90 of 2.6 mg/kg. The compound also showed an LD50 in [6] (i.p.) of 17.5 mg/kg. The “TI (ratio of LD50 to ED90)” value in data set [6] (i.p.) is 6.7.

On to `CC(=O)[O][Pt]([OH])([OH])[O]C(C)=O.N.NC1CCCCC1` [Example 2, c,t,c-[Pt(OH)2 (OAc)2 NH3 (c-C6 H11 NH2)]], for which the IC50 in data set [1] worked out at 37000 nM; in data set [2], 21000 nM; in data set [3], 6500 nM; in data set [4], 4300 nM; in data set [5], 740 nM; in data set [7] it was 1350 nM. Also, the IC50 in [8] was determined as 4200 nM; in data set [9], 3700 nM. The ED90 in data set [6] (i.p.) is given as 4.2 mg/kg; in [6] (setting [10]), < 2.5 mg/kg; in data set [6] (p.o.), 42 mg/kg. For the same compound, the results for the LD50 in data set [6] (i.p.), in data set [6] (setting [10]) and in data set [6] (p.o.) were 17.5 mg/kg, 14 mg/kg and 670 mg/kg, respectively. The figures for the “TI (ratio of LD50 to ED90)” value in [6] (i.p.), in data set [6] (setting [10]) and in data set [6] (p.o.) were 4.2, > 5.6 and 16, respectively. Besides, the “therapeutic index, oral route compared to parenteral administration” value in data set [6] (oral vs parenteral, in words) was “greater therapeutic index”.

As for `CC(C)N.CC(C)N.CCCCCC(=O)[O][Pt]([OH])([Cl])[O]C(=O)CCCCC` [Example 3, c,t,c-[PtCl(OH)(O2 CC5 H11)2 (i-C3 H7 NH2)2]], the IC50 in [1] was 50 nM; in data set [2], 4.6 nM; in data set [3] it was < 2.5 nM; in [4] it was < 2.5 nM; in data set [5], < 2.5 nM; in data set [7] it was < 2.5 nM. Moreover, the results for the IC50 in [8] and in data set [9] were < 2.5 nM and 2.9 nM, respectively.

Regarding `CC(=O)[O][Pt]([OH])([Cl])[O]C(C)=O.CC(C)N.CC(C)N` [Example 4, c,t,c-[PtCl(OH)(OAc)2 (i-C3 H7 NH2)2]], the half-inhibitory concentration (IC50) is 2100 nM in data set [1]; 1600 nM in [2]; 890 nM in data set [3]; 590 nM in data set [4]; 86 nM in [5]; 210 nM in data set [7]. Also, the IC50 was found to be 650 nM in data set [8] and 1900 nM in data set [9].

Consider `CC(=O)[O][Pt]([OH])([Cl])[O]C(C)=O.N.NC1CCCCC1` [Example 6, c,t,c-[PtCl(OH)(OAc)2 NH3 (c-C6 H11 NH2)]], for which the IC50 in data set [1] was 3100 nM; in data set [2] it was 1150 nM; in [3], 240 nM; in [4], 440 nM; in [5], 22 nM; in data set [7], 82 nM. In addition, the IC50 in data set [8] came to 310 nM; in [9], 930 nM.

Take `CC(C)N.CC(C)N.C[O][Pt]([OH])([O]C(C)=O)[O]C(C)=O` [Example 7, c,t,c-[Pt(OH)(OMe)(OAc)2 (i--C3 H7 NH2)2]]: the IC50 in data set [1] turned out to be 12500 nM; in data set [2] it was 6100 nM; in data set [3], 3100 nM; in data set [4], 2500 nM; in [5] it was 260 nM.
